According to patent US7468391B2, “Methods for treating retinoid responsive disorders using selective inhibitors of CYP26A and CYP26B” (Allergan, Inc., priority 2003, dated 2008):

How the values were obtained:
[1] = test system: hamster flank organ sebaceous gland; assay: Hamster flank organ sebaceous gland differentiation (model for acne); type: in vivo, male golden syrian hamsters; conditions: compared with 13-cis retinoic acid (30 mg/kg), FIG. 3
Protocol: Differentiation of hamster flank organ sebaceous gland is a model system for development of acne. To determine the effectiveness of selective CYP26B inhibitors for treating acne, such inhibitors were tested in this model system. To confirm that this model system can predict the effectiveness of a compound in reducing acne, 13-cis retinoic acid (acutane) was used as a positive control.
For the hamster model system, male golden syrian hamsters were fed LabDiet#5002 rodent diet and housed individually on a 14/10 hr light/dark cycle. For treatment, the animals were randomized according to body weight and they were also weighed at each treatment so that the drug doses could be adjusted accordingly. The animals were treated daily by oral gavage, 6 days/week for 4 weeks. At the end of treatments, the animals were sacrificed by carbon dioxide inhalation. The flank organs were then excised and spread on a small piece of index card which was placed in a histology cassette for fixation in 10% buffered formaldehyde. The specimen was divided into 5 equally spaced portions to make paraffin blocks and one 5-micrometer H&E sections was prepared from each block. The two sections that contained the most sebaceous glands were used to determine the average acini area of the flank organ. A video camera attached to a standard microscope with the 4× objective was used to capture the images of the sebaceous glands. Computer programs Videoshop and NIH Image 1.63 were used to quantify the acini areas. All the recognizable sebaceous glands in the two sections were analyzed and the means were derived for comparison among various treatments. In all studies, blood samples were also collected for determining the levels of serum triglyceride using a triglyceride GPO Trinder kit from Sigma Chemicals (St. Louis, Mo.).

RAR β = target: T1, RAR β (Homo sapiens, UniProt P10826); assay: RAR β EC50/(efficacy); type: cell-based; conditions: Table 3
T1 sequence (P10826 1-455): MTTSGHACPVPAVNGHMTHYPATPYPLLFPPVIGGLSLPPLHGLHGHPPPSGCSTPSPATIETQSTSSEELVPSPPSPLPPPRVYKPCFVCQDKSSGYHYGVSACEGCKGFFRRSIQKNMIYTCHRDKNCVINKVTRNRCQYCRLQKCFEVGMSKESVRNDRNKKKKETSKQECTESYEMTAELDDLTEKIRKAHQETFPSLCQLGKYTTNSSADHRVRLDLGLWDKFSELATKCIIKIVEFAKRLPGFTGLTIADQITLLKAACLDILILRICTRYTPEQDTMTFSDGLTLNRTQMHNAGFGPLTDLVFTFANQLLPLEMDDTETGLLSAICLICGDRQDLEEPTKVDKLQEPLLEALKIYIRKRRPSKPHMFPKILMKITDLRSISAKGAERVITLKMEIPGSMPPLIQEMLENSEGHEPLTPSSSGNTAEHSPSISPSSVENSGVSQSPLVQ

RAR α = target: T2, RAR α (Homo sapiens, UniProt P10276); assay: RAR α Kd; type: binding; conditions: Table 3
T2 sequence (P10276 1-462): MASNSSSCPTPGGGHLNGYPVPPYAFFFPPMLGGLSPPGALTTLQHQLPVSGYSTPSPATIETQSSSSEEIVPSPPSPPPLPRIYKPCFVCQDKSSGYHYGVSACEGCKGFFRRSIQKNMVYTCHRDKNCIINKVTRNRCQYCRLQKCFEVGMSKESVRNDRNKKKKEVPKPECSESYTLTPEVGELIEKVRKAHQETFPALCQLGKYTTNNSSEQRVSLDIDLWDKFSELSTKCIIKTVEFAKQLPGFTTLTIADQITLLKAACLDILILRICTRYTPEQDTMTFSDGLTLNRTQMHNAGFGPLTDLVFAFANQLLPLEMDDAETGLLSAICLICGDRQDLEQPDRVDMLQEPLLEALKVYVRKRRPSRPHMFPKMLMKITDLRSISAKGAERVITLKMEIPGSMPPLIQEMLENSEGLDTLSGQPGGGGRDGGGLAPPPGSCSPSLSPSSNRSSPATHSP

| RAR β (EFFICACY) (RAR β) | Kd (RAR α) | SMILES | hamster flank sebaceous gland differentiation ([1]; 12.5 mg/kg) | hamster flank sebaceous gland differentiation ([1]; 50 mg/kg) |
| --- | --- | --- | --- | --- |
| 25 | > 10 µM | CN(Cc1cccc(C#Cc2ccc(/C=C/C(=O)O)cc2)c1)C1CC1 [AGN 199713] | reduced hamster flank sebaceous gland differentiation at least as effectively as 13-cis retinoic acid | – |
| < 5 | > 10 µM | CN(C1CC1)C1CCC(C)(C)c2cc(C#Cc3ccc(C(C)(C)C(=O)O)cc3)ccc21 (stereo not drawn) [AGN 198790] | – | reduced hamster flank sebaceous gland differentiation at least as effectively as 13-cis retinoic acid |
